Data taken from ChEMBL document CHEMBL3045058, “Comparative QSAR and pharmacophore modeling of substituted 2-[2-(dimethylamino) ethyl]-1, 2-dihydro-3H-dibenz[de,h]isoquinoline-1,3-diones derivatives as anti-tumor activity” (Med Chem Res, 2013).

What was measured:
[1] = Cytotoxicity against human Ovarian cancer cells; format: functional, cell-based; settings: Cancer cell lines
[2] = Cytotoxicity against human melanoma cells; format: functional, cell-based; settings: Melanoma cell

| SMILES | pIC50 [1] | pIC50 [2] |
| --- | --- | --- |
| CN(C)CCN1C(=O)c2cccc3cc4cc(O)ccc4c(c23)C1=O | 7.66 | 8.34 |
| CC(=O)Nc1ccc2c3c4c(cccc4cc2c1)C(=O)N(CCN(C)C)C3=O | 7.89 | 7.22 |
| CN(C)CCN1C(=O)c2c(N)ccc3cc4ccccc4c(c23)C1=O | 7.92 | 8.02 |
| CN(C)CCN1C(=O)c2c(Cl)ccc3cc4ccccc4c(c23)C1=O | 6.75 | 6.89 |
| CN(C)CCN1C(=O)c2cccc3cc4ccc(N)cc4c(c23)C1=O | 7.7 | 7.2 |
| CC(=O)Nc1ccc2cc3cccc4c3c(c2c1)C(=O)N(CCN(C)C)C4=O | 7.31 | 7.01 |
| CN(C)CCN1C(=O)c2cccc3cc4c(N)cccc4c(c23)C1=O | 5.02 | 4.69 |
| CN(C)CCN1C(=O)c2cccc3cc4ccc(O)cc4c(c23)C1=O | 5.72 | 5.92 |
| CN(C)CCN1C(=O)c2cccc3cc4c(O)cccc4c(c23)C1=O | 6.67 | 6.57 |
| CN(C)CCN1C(=O)c2cccc3cc4ccc(F)cc4c(c23)C1=O | 8.17 | 7.8 |
| CN(C)CCN1C(=O)c2cccc3cc4c(I)cccc4c(c23)C1=O | 5.68 | 6.08 |
| CN(C)CCN1C(=O)c2cccc3cc4ccc(C#N)cc4c(c23)C1=O | 7.92 | 7.96 |
| CN(C)CCN1C(=O)c2cccc3cc4ccc(-c5ccccc5)cc4c(c23)C1=O | 6.46 | 5.73 |
| CN(C)CCN1C(=O)c2c(NC(=O)C(C)(C)C)ccc3cc4ccccc4c(c23)C1=O | 6.18 | 5.06 |
| CCOc1ccc2cc3cccc4c3c(c2c1)C(=O)N(CCN(C)C)C4=O | 7.2 | 7.12 |
| CN(C)CCN1C(=O)c2cccc3cc4cc(N)ccc4c(c23)C1=O | 7.85 | 7.35 |
| CN(C)CCN1C(=O)c2cccc3cc4cccc(N)c4c(c23)C1=O | 5.76 | 6.02 |
| CN(C)CCN1C(=O)c2cccc3cc4c([N+](=O)[O-])cccc4c(c23)C1=O | 7.3 | 7.42 |
| CN(C)CCN1C(=O)c2cccc3cc4cccc(Cl)c4c(c23)C1=O | 5.05 | 5.69 |
| CN(C)CCN1C(=O)c2cccc3cc4cccc([N+](=O)[O-])c4c(c23)C1=O | 6.65 | 7.13 |

| SMILES | pIC50 [1] | pIC50 [2] |
| --- | --- | --- |
| CN(C)CCN1C(=O)c2cccc3cc4ccc(Cl)cc4c(c23)C1=O | 7.11 | 7.19 |
| CN(C)CCN1C(=O)c2cccc3cc4cc(Cl)ccc4c(c23)C1=O | 6.64 | 7.05 |
| CN(C)CCN1C(=O)c2cccc3cc4ccc(I)cc4c(c23)C1=O | 6.75 | 6.2 |
| COc1cccc2c3c4c(cccc4cc12)C(=O)N(CCN(C)C)C3=O | 7.28 | 7.28 |
| CC(=O)Nc1cccc2c3c4c(cccc4cc12)C(=O)N(CCN(C)C)C3=O | 5.7 | 5.92 |
| CC(=O)Nc1ccc2cc3ccccc3c3c2c1C(=O)N(CCN(C)C)C3=O | 6.21 | 6.01 |
| CC(=O)Nc1cccc2cc3cccc4c3c(c12)C(=O)N(CCN(C)C)C4=O | 5.61 | 5.61 |
| CC(C)C(=O)Nc1ccc2cc3cccc4c3c(c2c1)C(=O)N(CCN(C)C)C4=O | 6.48 | 6.26 |
| CN(C)CCNc1ccc2cc3ccccc3c3c2c1C(=O)N(CCN(C)C)C3=O | 6.24 | 6.53 |
| CN(C)CCN1C(=O)c2cccc3cc4ccc([N+](=O)[O-])cc4c(c23)C1=O | 7.64 | 7.44 |
| CN(C)CCN1C(=O)c2cccc3cc4c(Cl)cccc4c(c23)C1=O | 7.41 | 7.11 |
| Cc1ccc2cc3ccccc3c3c2c1C(=O)N(CCN(C)C)C3=O | 6.91 | 6.75 |
| Cc1ccc2cc3cccc4c3c(c2c1)C(=O)N(CCN(C)C)C4=O | 7.17 | 7.09 |
| COc1ccc2cc3ccccc3c3c2c1C(=O)N(CCN(C)C)C3=O | 6.3 | 6.74 |
| COc1ccc2cc3cccc4c3c(c2c1)C(=O)N(CCN(C)C)C4=O | 7.11 | 7.28 |
| CN(C)CCN1C(=O)c2c(O)ccc3cc4ccccc4c(c23)C1=O | 4.83 | 5.12 |
| CN(C)CCN1C(=O)c2cccc3cc4cccc(O)c4c(c23)C1=O | 5.72 | 6.27 |
| COc1ccc2c3c4c(cccc4cc2c1)C(=O)N(CCN(C)C)C3=O | 6.27 | 6.79 |
| CN(C)CCN1C(=O)c2cccc3cc4ccccc4c(c23)C1=O [AZONAFIDE] | 7.24 | 7.15 |
